By pIC50 is commonly meant the IC50 on a negative log10 scale, so that one unit is a factor of ten. A lower pIC50 goes with a high IC50.

The assay addresses T1, Angiotensin II Receptor (Bos taurus, UniProt P25104).
T1 construct: The brownish tissue forming the adrenal cortex is scraped off and finely minced with scissors before homogenization; from tissue; host or cells: beef adrenal cortex, microsomal membranes (100,000×g pellet); fresh glands from a local slaughter house (Maxwell-Cohen)
T1 sequence (P25104 1-359): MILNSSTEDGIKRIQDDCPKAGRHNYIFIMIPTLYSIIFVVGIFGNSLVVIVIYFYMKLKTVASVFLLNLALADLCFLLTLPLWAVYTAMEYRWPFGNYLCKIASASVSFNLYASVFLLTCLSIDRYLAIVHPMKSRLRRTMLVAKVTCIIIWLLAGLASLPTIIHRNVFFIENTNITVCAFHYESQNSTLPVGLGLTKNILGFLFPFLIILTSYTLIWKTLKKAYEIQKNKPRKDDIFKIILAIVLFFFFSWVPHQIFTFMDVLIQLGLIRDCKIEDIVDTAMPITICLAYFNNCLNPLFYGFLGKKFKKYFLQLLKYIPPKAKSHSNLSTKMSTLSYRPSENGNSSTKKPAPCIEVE
Put plainly: Receptor Binding Assay: Binding of [^125 I](Sar^1,Ile^8)AngII to beef adrenal cortex membranes. Particulars: 60 min, room temperature. An outline of the steps:
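Competition binding of [125I](Sar1,Ile8)AngII (2200 Ci/mmole) to bovine adrenal cortex membranes (100,000×g pellet) in 50.0 mM Tris.HCl, pH 7.2, 0.1 mM PMSF. Compounds were added in DMSO and incubated 60 min at room temperature, in triplicate. Bound ligand was filtered onto PEI-presoaked filters and gamma-counted, with nonlinear analysis.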

pIC50: −log10 of the molar value.

`CCCCc1nc2ccc(C(O)C3CCN(C)C3=O)cc2c(=O)n1Cc1ccc(-c2ccccc2-c2nn[nH]n2)cc1` (single isomer, unassigned; isomer 2) [Example 33, 2-Butyl-6-[hydroxy(1-methyl-2-oxo-3-pyrrolidinyl)methyl-3-[[2'-(1H-tetrazol-5-yl)[1,1'-biphenyl]-4-yl]methyl]-4(3H)-quinazolinone isomer 2] gave a pIC50 of 7.54.
In turn, `CCCCc1nc2ccc(C(OC)C3CCCO3)cc2c(=O)n1Cc1ccc(-c2ccccc2-c2nn[nH]n2)cc1` (single isomer, unassigned) [Example 24] showed a negative logarithm of the IC50 (pIC50) of 7.42.
`CCCCc1nc2ccc(C(OC)C3CCCN(C)C3=O)cc2c(=O)n1Cc1ccc(-c2ccccc2-c2nn[nH]n2)cc1` (single isomer, unassigned; isomer 1) [Example 42, 2-Butyl-6-methoxy(1-methyl-2-oxo-3-piperidinyl)methyl]-3-[[2' -1H-tetrazol-5-yl)[1,1'-biphenyl]-4-yl]methyl-4(3H)-quinazolinone isomer 1] had a pIC50 of 7.04.
Turning to `CCCCc1nc2ccc(C(O)C3CCCN(C)C3=O)cc2c(=O)n1Cc1ccc(-c2ccccc2-c2nn[nH]n2)cc1` (single isomer, unassigned; isomer 2) [Example 38, 2-Butyl-6-hydroxy(1-methyl-2-oxo-3-piperidinyl)methyl-3-[[2'-(1H-tetrazol-5-yl)[1,1'-biphenyl]-4-yl]methyl-4(3H)-quinazolinone isomer 2], the pIC50 was 7.17.
For `CCCCc1nc2ccc(C(O)C3CCCN(C)C3=O)cc2c(=O)n1Cc1ccc(-c2ccccc2-c2nn[nH]n2)cc1` (single isomer, unassigned; isomer 1) [Example 37, 2-Butyl-6-hydroxy(1-methyl-2-oxo-3-piperidinyl)methyl]-3-[[2'-(1H-tetrazol-5-yl)[1,1'-biphenyl]-4-yl]methyl]-4(3H)-quinazolinone isomer 1], the pIC50 was 7.39.
Compound `CCCCc1nc2ccc(C(OC)C3CCCN(C)C3=O)cc2c(=O)n1Cc1ccc(-c2ccccc2-c2nn[nH]n2)cc1` (single isomer, unassigned; isomer 2) [Example 43, 2-Butyl-6-[methoxy(1-methyl-2-oxo-3-piperidinyl)methyl]-3-[[2'-(1H-tetrazol-5-yl)[1,1'-biphenyl]-4-yl]methyl]-4(3H)-quinazoline isomer 2] showed a pIC50 of 7.15.
`CCCCc1nc2ccc(C(OC)C3CCCO3)cc2c(=O)n1Cc1ccc(-c2ccccc2-c2nn[nH]n2)cc1` (single isomer, unassigned; isomer 1) [Example 23, 2-Butyl-6-[methoxy(tetrahydro-2-furanyl)methyl-3-[[2'-(1H-tetrazol-5-yl)[1,1'-biphenyl]-4-yl]-methyl]-4(3e,uns/H/ )-quinazolinone isomer 1] had a pIC50 of 7.17. This pIC50 and that of the compound before are within 0.2 log units of each other.
In the case of `CCCCc1nc2ccc(C(O)C3CCN(C)C3=O)cc2c(=O)n1Cc1ccc(-c2ccccc2-c2nn[nH]n2)cc1` (single isomer, unassigned; isomer 1) [Example 32, 2-Butyl-6-[hydroxy(1-methyl-2-oxo-3-pyrrolidinyl)methyl]-3-[[2'-(1e,uns/H/ -tetrazol-5-yl)[1,1'-biphenyl]-4-yl]methyl]-4(3H)-quinazolinone isomer 1], the pIC50 is 7.39.

These data come from patent publication US5288720A, “Angiotensin II receptor blocking 2,3,6 substituted quinazolinones” (American Cyanamid Company, priority 1993, dated 1994).
